# Tests used:
# DGKA = biological target: T1, DGKA (Homo sapiens, UniProt P23743); test: DGKA Inhibition ADP-Glo Assay; type: biochemical; conditions: 40 μM ATP
# T1 construct: purchased SignalChem D21-10BG
# Description: The DGKA inhibition reactions were performed using ADP-Glo assay. The reactions were carried out in 50 mM HEPES, 100 mM NaCl, 10 mM MgCl2, 1 mM CaCl2, 0.005% TritonX-100 and 1 mM DTT as working solution (pH=7.5). 30 nL DMSO solution of each test compound (Top concentration […] with 10 point, 4-fold dilution series for each compound) were transferred to 384 well plate by Echo and 5 μL DGKA (SignalChem, D21-10BG) enzyme working solution at 2× final reaction concentration was added to each well. After incubated at 25° C. for 15 minutes, 5 μL substrate working solution contain 40 μM ATP (Promega, V915B) and 200 µM DLG (SignalChem, D430-59) were added to initiate reaction. After enzymatic reaction at 25° C. for 60 min, ADP Glo assay reagents (Promega, V9102) were added and luminescence was recorded using an EnVision following the instruction of manual. […] The IC50 value was calculated via a regression analysis of the inhibition rate.
# Human Pan T cells = test: IL-2 Release Detection Assay; type: cell-based; conditions: T-cell; for EC50: IL-2 in supernatant by ELISA, anti-CD3 pre-coated plate, 24 hours; for maximal fold induction: Top activation/DMSO control; for activity at 0.1 µM: curve value at 100 nM/DMSO control*100%, read-out: Activation % at 100 nM
# Description: Isolate Human Pan T cells from PBMC according to T cell isolation kit (Stemcell, 17951). The suspend T cell in RPMI 1640 medium containing 10% FBS, 1% PS and 55 µM β-Mer at a density of 3*10^6 cells/well/3 ml are seeded into 6 well plate, recovered overnight at 37° C.&[…]. Harvest overnight recovered T cells are suspended in fresh RPMI1640 medium containing 10% FBS, 1% PS and 55 μM f-Mer, seeded 1*10^5/well/200 μl cells into the anti-CD3 pre-coated 96 well plate. Add dilutions of compounds into the cells and incubate at 37° C.&5% CO2 for 24 hours. IL-2 in cell supernatant was detected by ELISA Kit (R&D, DY202). Fit the compound EC50 in non-linear regression equation: Y=Bottom+(Top−Bottom)/(1+10^((Log EC50−X)*HillSlope)), X=compound concentration, Y=Activation %. Top and Bottom: Plateaus in same units as Y. Log EC50: same log units as X. Activation fold: Top activation/DMSO control. Activation % at 100 nM: Activation of non-linear regression equation curve at the concentration of 100 nM/DMSO control*100%.
# [1] = Mouse PK profile after oral administration; type: in vivo, Male CD-1 mice; conditions: for AUC(0-inf) / AUC(0-t) / Cmax / half-life: male, CD-1, plasma, mouse, oral, 5 mg/kg; for T1/2, Cmax and AUC compared with compound: mouse PK evaluation, comparison in words
# Description: Species and strain: Male CD-1 mice of SPF. Source: Sino-British SIPPR/BK Lab Animal Ltd, Shanghai. 3 mice were orally gavage administrated with given compounds (Formulation: 5% DMSO+10% Solutol+85% Saline). The blood samples were taken via cephalic vein at timepoints 0.25 h, 0.5 h, 1 h, 2 h, 4 h, 6 h, 8 h and 24 h after oral gavage administration, 30 μL/time point. Blood samples were placed in tubes containing K2-EDTA and stored on ice until centrifuged. The blood samples were centrifuged at 6800 g for 6 minutes at 2-8° C. within 1 h after collected and stored frozen at approximately −80° C. An aliquot of 10 μL plasma samples were protein precipitated with 200 μL MeOH in which contains 10 ng/mL Verapamil (IS). The mixture was vortexed for 1 min and centrifuged at 18000 g for 7 min. Transfer 180 μL supernatant to 96 well plates. An aliquot of 6 μL supernatant was injected for LC-MS/MS analysis by LC-MS/MS-04 (API4000) instrument. The analytical results were confirmed using quality control samples for intra-assay variation. The accuracy of >66.7% of the quality control samples should be between 80-120% of the known value(s). Standard set of parameters including Area Under the Curve (AUC(0-t) and AUC(0-∞)), elimination half-live (T½), maximum plasma concentration (Cmax), will be calculated using noncompartmental analysis modules in FDA certified pharmacokinetic program Phoenix WinNonlin 7.0 (Pharsight, USA).
# [2] = Rat PK profile after oral administration; type: in vivo, Male SD rats; conditions: for AUC(0-inf) / AUC(0-t) / Cmax / half-life: male, SD, plasma, rat, oral, 5 mg/kg; for T1/2, Cmax and AUC compared with compound: rat PK evaluation, comparison in words
# Description: Species and strain: Male SD rats of SPF. Source: Sino-British SIPPR/BK Lab Animal Ltd, Shanghai. 3 rats were orally gavage administrated with given compounds (Formulation: 5% DMSO+10% Solutol+85% Saline). The blood samples were taken via submandibular vein or other suitable vein at timepoints 0.25 h, 0.5 h, 1 h, 2 h, 4 h, 6 h, 8 h and 24 h after oral gavage administration, 0.15 mL/time point. Blood samples were placed in tubes containing K2-EDTA and stored on ice until centrifuged. The blood samples were centrifuged at 6800 g for 6 minutes at 2-8° C. within 1 h after collected and stored frozen at approximately −80° C. An aliquot of 30 μL plasma samples were protein precipitated with 300 μL MeOH in which contains 100 ng/mL Verapamil (IS). The mixture was vortexed for 1 min and centrifuged at 18000 g for 7 min. Transfer 300 μL supernatant to 96 well plates. An aliquot of 8 μL supernatant was injected for LC-MS/MS analysis by LC-MS/MS-12 (TQ5500) instrument. The analytical results were confirmed using quality control samples for intra-assay variation. The accuracy of >66.7% of the quality control samples should be between 80-120% of the known value(s). Standard set of parameters including Area Under the Curve (AUC(0-t) and AUC(0-∞)), elimination half-live (T1/2), maximum plasma concentration (Cmax), will be calculated using noncompartmental analysis modules in FDA certified pharmacokinetic program Phoenix WinNonlin 7.0 (Pharsight, USA).
# T1 sequence (P23743 whole entry): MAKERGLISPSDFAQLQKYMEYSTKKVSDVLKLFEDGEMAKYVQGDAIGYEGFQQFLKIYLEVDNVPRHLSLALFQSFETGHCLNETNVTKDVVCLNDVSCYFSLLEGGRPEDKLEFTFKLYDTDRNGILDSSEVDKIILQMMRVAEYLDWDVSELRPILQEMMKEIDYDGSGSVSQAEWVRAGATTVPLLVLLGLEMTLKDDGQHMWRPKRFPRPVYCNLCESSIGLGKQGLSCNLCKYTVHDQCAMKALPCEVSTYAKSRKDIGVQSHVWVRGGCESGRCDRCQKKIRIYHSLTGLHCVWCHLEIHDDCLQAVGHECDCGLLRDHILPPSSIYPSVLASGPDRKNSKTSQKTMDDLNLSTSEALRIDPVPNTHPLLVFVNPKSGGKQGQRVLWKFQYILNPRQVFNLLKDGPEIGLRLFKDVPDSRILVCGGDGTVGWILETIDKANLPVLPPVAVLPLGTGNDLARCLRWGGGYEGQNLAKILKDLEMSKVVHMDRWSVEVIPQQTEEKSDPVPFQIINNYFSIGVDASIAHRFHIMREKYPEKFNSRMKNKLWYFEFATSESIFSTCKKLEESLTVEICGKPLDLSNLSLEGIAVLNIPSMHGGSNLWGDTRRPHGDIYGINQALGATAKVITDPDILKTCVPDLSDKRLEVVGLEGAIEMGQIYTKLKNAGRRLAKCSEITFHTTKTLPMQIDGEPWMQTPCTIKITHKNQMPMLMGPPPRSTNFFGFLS
IC50 (DGKA) [nM],EC50 (Human Pan T cells) [nM],AUC(0-inf) [1] [ng·h/mL],AUC(0-t) [1] [ng·h/mL],Cmax [1] [ng/mL],half-life [1] [h],AUC(0-inf) [2] [ng·h/mL],AUC(0-t) [2] [ng·h/mL],Cmax [2] [ng/mL],half-life [2] [h],"T1/2, Cmax and AUC compared with compound [1]","T1/2, Cmax and AUC compared with compound [2]",Compound,maximal fold induction (Human Pan T cells),activity at 0.1 µM (Human Pan T cells) [%]
< 1,444,7110,6660,985,2.03,3760,3470,292,6.32,,,"Cn1c(=O)nc(N2CCOCc3c(C#CC4(C(F)(F)F)CC4)cccc32)c2cc(Cl)ccc21 [Example 5, 6-chloro-1-methyl-4-(6-((1-(trifluoromethyl)cyclopropyl)ethynyl)-2,3-dihydrobenzo[e][1,4]oxazepin-1(5H)-yl)quinazolin-2(1H)-one]",7.7,395
< 1,608,15500,15300,2230,3.28,12000,10200,724,8.09,"longer T1/2, much higher Cmax and AUC","longer T1/2, much higher Cmax and AUC","Cn1c(=O)nc(N2CCOCc3c(C#CC4CC4)cccc32)c2cc(Cl)c(OCCO)cc21 [Example 41, 6-chloro-4-(6-(cyclopropylethynyl)-2,3-dihydrobenzo[e][1,4]oxazepin-1(5H)-yl)-7-(2-hydroxyethoxy)-1-methylquinazolin-2(1H)-one]",26.3,510
< 1,131,28400,26200,2400,6.13,,7520,455,,"longer T1/2, much higher Cmax and AUC","longer T1/2, much higher Cmax and AUC","Cn1c(=O)nc(N2CCOCc3c(C#CC4(C(F)(F)F)CC4)cccc32)c2cc(Cl)c(OCCO)cc21 [Example 13, 6-chloro-7-(2-hydroxyethoxy)-1-methyl-4-(6-((1-(trifluoromethyl)cyclopropyl)ethynyl)-2,3-dihydrobenzo[e][1,4]oxazepin-1(5H)-yl)quinazolin-2(1H)-one]",22.5,
< 1,1080,7870,7740,1690,1.03,,,,,,,"Cn1c(=O)nc(N2CCOCc3c(C#CC4(C(F)(F)F)CC4)cccc32)c2cc(C#N)c(OC3CCOC3)cc21 (stereo not drawn) [Example 12, 1-methyl-2-oxo-7-((tetrahydrofuran-3-yl)oxy)-4-(6-((1-(trifluoromethyl)cyclopropyl)ethynyl)-2,3-dihydrobenzo[e][1,4]oxazepin-1(5H)-yl)-1,2-dihydroquinazoline-6-carbonitrile]",14.2,311
